From article PMC10196118, “Evidence for broad cross-reactivity of the SARS-CoV-2 NSP12-directed CD4^+ T-cell response with pre-primed responses directed against common cold coronaviruses” (Frontiers in Immunology, 2023)

Experiments:
HLA DRB1*09:01 = HLA DRB1*09:01 (Homo sapiens, UniProt P01903+P01911, A100R/A103E/D57H/D86V/F55Y/F60I/F76Y/I96F/K127E/L162R/M171V/P40D/Q125H/Q99R/R33Q/R42F/S133A/S66N/T210M/V115G/W38K/Y107V/Y59G/Y89S); experiment: biochemical; type: binding; conditions: binder threshold 1,000 nM, read-out: In vitro (IC50 nM) DRB1*09:01
HLA DRB1*07:01 = HLA DRB1*07:01 (Homo sapiens, UniProt P01903+P01911, A100R/A102G/A103Q/D57E/D86V/E43K/F76Y/K127E/L162R/M171V/P40G/Q125H/Q99D/R33Q/R42Y/R54Q/S133A/S66F/T210M/V115G/Y107V/Y59L/Y89S); experiment: biochemical; type: binding; conditions: binder threshold 1,000 nM, read-out: In vitro (IC50 nM) DRB1*07:01
HLA DRB1*11:01 = HLA DRB1*11:01 (Homo sapiens, UniProt P01903+P01911, A100R/A169T/A87E/I96F/K41T/L162R/M171V/P40S/Q125H/Q178H/Q39Y/Q99D/R42S/S66Y/T262R/V115G/W38E); experiment: biochemical; type: binding; conditions: binder threshold 1,000 nM, read-out: In vitro (IC50 nM) DRB1*11:01
HLA DRB1*12:01 = HLA DRB1*12:01 (Homo sapiens, UniProt P01903+P01911, A100R/A169T/D57E/D86V/F55L/H45Y/K41T/L162R/M171V/P40S/Q125H/Q178H/Q39Y/Q99D/R42G/S66L/T262R/V114A/V67L/W38E/Y59H/Y61H/Y89S); experiment: biochemical; type: binding; conditions: binder threshold 1,000 nM, read-out: In vitro (IC50 nM) DRB1*12:01
HLA DRB1*01:01 = HLA DRB1*01:01 (Homo sapiens, UniProt P01903+P01911, A100R/D57E/F55L/F60I/F76Y/I96L/L162R/M171V/P40L/Q125E/R42F/V115G/Y59C); experiment: biochemical; type: binding; conditions: binder threshold 1,000 nM, read-out: In vitro (IC50 nM) DRB1*01:01
HLA DRB1*04:01 = HLA DRB1*04:01 (Homo sapiens, UniProt P01903+P01911, A100K/A169T/F76Y/I96L/K127E/L162R/M171V/N62H/P40V/Q125Y/R42H/S133A/S149N/S66Y/V115G/V209L/W38E); experiment: biochemical; type: binding; conditions: binder threshold 1,000 nM, read-out: In vitro (IC50 nM) DRB1*04:01
HLA DRB1*15:01 = HLA DRB1*15:01 (Homo sapiens, UniProt P01903+P01911); experiment: biochemical; type: binding; conditions: binder threshold 1,000 nM, read-out: In vitro (IC50 nM) DRB1*15:01
HLA DRB1*08:02 = HLA DRB1*08:02 (Homo sapiens, UniProt P01903+P01911, A100R/A103L/A169T/F76Y/H45Y/I96F/K41T/L162R/M171V/P40S/Q125H/Q178H/Q39Y/Q99D/R218S/R42G/S66Y/V115G/W38E); experiment: biochemical; type: binding; conditions: binder threshold 1,000 nM, read-out: In vitro (IC50 nM) DRB1*08:02
[1] = tested on: pre-cultured PBMCs (NSP12-specific T cells); experiment: IFN-γ ELISpot with single 15-mer peptides after 11–13 days in vitro peptide-pool T-cell expansion; type: cell-based, human; conditions: for peptide-specific response, donor HH-N12-18, post COVID-19 / peptide-specific response, donor HH-N12-18, pre COVID-19 / peptide-specific response, donor HH-N12-34, post COVID-19 / peptide-specific response, donor HH-N12-34, pre COVID-19 / peptide-specific response, donor HH-N12-35, post COVID-19 / peptide-specific response, donor HH-N12-35, pre COVID-19 / peptide-specific response, donor HH-N12-36, post COVID-19 / peptide-specific response, donor HH-N12-36, pre COVID-19 / peptide-specific response, donor HH-N12-37, post COVID-19 / peptide-specific response, donor HH-N12-37, pre COVID-19: single NSP12 15-mer peptides
[2] = donor HH-N12-18, sample post COVID-19
[3] = donor HH-N12-18, sample pre COVID-19
[4] = donor HH-N12-34, sample post COVID-19
[5] = donor HH-N12-34, sample pre COVID-19
[6] = donor HH-N12-35, sample post COVID-19
[7] = donor HH-N12-35, sample pre COVID-19
[8] = donor HH-N12-36, sample post COVID-19
[9] = donor HH-N12-36, sample pre COVID-19
[10] = donor HH-N12-37, sample post COVID-19
[11] = donor HH-N12-37, sample pre COVID-19

HLA DRB1*11:01, sequence (P01903 26-254, other chains not shown): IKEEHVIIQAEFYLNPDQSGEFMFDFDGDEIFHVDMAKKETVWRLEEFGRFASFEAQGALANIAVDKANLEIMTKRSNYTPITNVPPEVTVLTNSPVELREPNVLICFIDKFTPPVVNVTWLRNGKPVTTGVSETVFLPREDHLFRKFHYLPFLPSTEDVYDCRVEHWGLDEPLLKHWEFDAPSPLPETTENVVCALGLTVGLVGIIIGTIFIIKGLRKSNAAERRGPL

Row | Compound | peptide-specific response, donor HH-N12-18, post COVID-19 [1, 2] | peptide-specific response, donor HH-N12-18, pre COVID-19 [1, 3] | peptide-specific response, donor HH-N12-34, post COVID-19 [1, 4] | peptide-specific response, donor HH-N12-34, pre COVID-19 [1, 5] | peptide-specific response, donor HH-N12-35, post COVID-19 [1, 6] | peptide-specific response, donor HH-N12-35, pre COVID-19 [1, 7] | peptide-specific response, donor HH-N12-36, post COVID-19 [1, 8] | peptide-specific response, donor HH-N12-36, pre COVID-19 [1, 9] | peptide-specific response, donor HH-N12-37, post COVID-19 [1, 10] | peptide-specific response, donor HH-N12-37, pre COVID-19 [1, 11] | other results
1 | CSCC[C@H](NC(=O)[C@H](CO)NC(=O)[C@H](Cc1ccccc1)NC(=O)[C@H](Cc1c[nH]cn1)NC(=O)[C@H](CCCCN)NC(=O)[C@H](CCCNC(=N)N)NC(=O)[C@H](CC(C)C)NC(=O)[C@H](Cc1ccc(O)cc1)NC(=O)[C@H](C)NC(=O)[C@H](Cc1ccc(O)cc1)NC(=O)[C@H](Cc1ccccc1)NC(=O)[C@H](CCC(=O)O)NC(=O)[C@H](CC(N)=O)NC(=O)[C@@H](NC(=O)[C@@H](N)Cc1ccccc1)C(C)C)C(=O)O [NSP12_149] |  |  |  |  |  |  |  |  |  |  | IC50 (HLA DRB1*09:01): 2510 nM; IC50 (HLA DRB1*07:01): 3830 nM; IC50 (HLA DRB1*11:01): 70 nM; IC50 (HLA DRB1*12:01): 2540 nM; IC50 (HLA DRB1*01:01): 36100 nM; IC50 (HLA DRB1*04:01): 8370 nM; IC50 (HLA DRB1*15:01): 1250 nM; IC50 (HLA DRB1*08:02): 828 nM
2 | VVKRHTFSNYQHEET [compound 15] | 0 | 0 | 0 | 0 | 0 | 0 | 0 | 0 | 0 | 0 | 
3 | LTAESHVDTDLTKPY [compound 51] | 0 | 0 | 0 | 0 | 0 | 0 | 0 | 0.05 | 0 | 0 | 
4 | DLNGNWYDFGDFIQT [compound 43] | 0.035 | 0 | 0 | 0 | 0 | 0 | 0 | 0.028 | 0 | 0 | 
5 | YSDVENPHLMGWDYP [compound 122] | 0 | 0 | 0 | 0 | 0 | 0 | 0 | 0 | 0 | 0 | 
6 | ASQGLVASIKNFKSV [compound 155] |  |  |  |  |  |  |  |  |  |  | peptide-specific T-cell response, donor HH-N12-18, post COVID-19 ([1]; donor HH-N12-18, sample post COVID-19, single NSP12 15-mer peptide, 0 = no response): 0; peptide-specific T-cell response, donor HH-N12-18, pre COVID-19 ([1]; donor HH-N12-18, sample pre COVID-19, single NSP12 15-mer peptide, 0 = no response): 0; peptide-specific T-cell response, donor HH-N12-34, post COVID-19 ([1]; donor HH-N12-34, sample post COVID-19, single NSP12 15-mer peptide, 0 = no response): 0; peptide-specific T-cell response, donor HH-N12-34, pre COVID-19 ([1]; donor HH-N12-34, sample pre COVID-19, single NSP12 15-mer peptide, 0 = no response): 0; peptide-specific T-cell response, donor HH-N12-35, post COVID-19 ([1]; donor HH-N12-35, sample post COVID-19, single NSP12 15-mer peptide, 0 = no response): 0; peptide-specific T-cell response, donor HH-N12-35, pre COVID-19 ([1]; donor HH-N12-35, sample pre COVID-19, single NSP12 15-mer peptide, 0 = no response): 0; peptide-specific T-cell response, donor HH-N12-36, post COVID-19 ([1]; donor HH-N12-36, sample post COVID-19, single NSP12 15-mer peptide, 0 = no response): 0; peptide-specific T-cell response, donor HH-N12-36, pre COVID-19 ([1]; donor HH-N12-36, sample pre COVID-19, single NSP12 15-mer peptide, 0 = no response): 0; peptide-specific T-cell response, donor HH-N12-37, post COVID-19 ([1]; donor HH-N12-37, sample post COVID-19, single NSP12 15-mer peptide, 0 = no response): 0; peptide-specific T-cell response, donor HH-N12-37, pre COVID-19 ([1]; donor HH-N12-37, sample pre COVID-19, single NSP12 15-mer peptide, 0 = no response): 0
7 | LVLARKHTTCCSLSH [compound 128] | 0 | 0 | 0 | 0 | 0 | 0 | 0 | 0 | 0 | 0 | 
8 | MLKTVYSDVENPHLM [compound 121] | 0 | 0 | 0 | 0 | 0 | 0 | 0.052 | 0 | 0 | 0 | 
9 | DIYNDKVAGFAKFLK [compound 8] | 0 | 0 | 0 | 0 | 0 | 0 | 0 | 0 | 0 | 0 | 
10 | DQTYHPNCVNCLDDR [compound 59] | 0 | 0 | 0 | 0 | 0 | 0 | 0 | 0.047 | 0 | 0 | 
11 | SFLNRVCGVSAARLT [compound 2] | 0 | 0 | 0 | 0 | 0 | 0 | 0 | 0 | 0 | 0 | 
12 | KDCPAVAKHDFFKFR [compound 19] | 0 | 0 | 0 | 0 | 0 | 0 | 0 | 0 | 0 | 0 | 
